Several values for one entry are separate records, joined by “and”; a condition that tells them apart may be missing. Equal entries are not always repeated.
Assays:
L1210 [1] = experiment: Residual leukemic cell populations after last treatment in L1210 leukemic mice treated with 1333 mg/kg of compound (qd, day 1); format: functional, Mus musculus
L1210 [2] = experiment: Residual leukemic cell populations after last treatment in L1210 leukemic mice treated with 2222 mg/kg of compound (qd, day 1); Toxic; format: toxicity, organism-based; design: dose 2222 mg/kg; details: mouse, in vivo
L1210 [3] = experiment: Residual leukemic cell populations after last treatment in L1210 leukemic mice treated with 288 mg/kg of compound (qd, day 1); format: functional, Mus musculus
L1210 [4] = experiment: Residual leukemic cell populations after last treatment in L1210 leukemic mice treated with 288 mg/kg of compound (qd, day 1-7); format: functional, Mus musculus
L1210 [5] = experiment: Residual leukemic cell populations after last treatment in L1210 leukemic mice treated with 3704 mg/kg of compound (qd, day 1); Toxic; format: toxicity, organism-based; design: dose 3704 mg/kg; details: mouse, in vivo
L1210 [6] = experiment: Residual leukemic cell populations after last treatment in L1210 leukemic mice treated with 400 mg/kg of compound (qd, day 1); format: functional, Mus musculus
L1210 [7] = experiment: Residual leukemic cell populations after last treatment in L1210 leukemic mice treated with 488 mg/kg of compound (qd, day 1-7); Toxic; format: toxicity, organism-based; design: dose 488 mg/kg; details: mouse, in vivo
L1210 [8] = experiment: (§1) Residual leukemic cell populations after last treatment in L1210 leukemic mice treated with 800 mg/kg of compound (qd, day 1); format: functional, Mus musculus
L1210 [9] = experiment: as §1; format: functional, Mus musculus; remark: listed apart in the source
L1210 [10] = experiment: Residual leukemic cell populations after last treatment in L1210 leukemic mice treated with 800 mg/kg of compound (qd, day 1-7); Toxic; format: toxicity, organism-based; design: dose 800 mg/kg; details: mouse, in vivo
Mus musculus [11] = experiment: Compound was evaluated for leukemia related splenomegaly in DBA2 mice spleen weight was determined ~ 24 hour after the last treatment at schedule of administration = qd, day 1,3, 5, 7, 9, 11 at a dose 1333 mg/kg; Toxic; format: ADME, organism-based; design: dose 1333 mg/kg; details: in vivo
Mus musculus [12] = experiment: Post inoculation life span in L1210 leukemic mice treated with 1333 mg/kg of compound (qd, day 1); format: functional
Mus musculus [13] = experiment: Post inoculation life span in L1210 leukemic mice treated with 2222 mg/kg of compound (qd, day 1); Tested in 6 mice; format: functional
Mus musculus [14] = experiment: Post inoculation life span in L1210 leukemic mice treated with 288 mg/kg of compound (qd, day 1-7); Tested in 6 mice; format: functional
Mus musculus [15] = experiment: Post inoculation life span in L1210 leukemic mice treated with 288 mg/kg of compound (qd, day 1); Tested in 6 mice; format: functional
Mus musculus [16] = experiment: Post inoculation life span in L1210 leukemic mice treated with 3704 mg/kg of compound (qd, day 1); Tested in 6 mice; format: functional
Mus musculus [17] = experiment: Post inoculation life span in L1210 leukemic mice treated with 480 mg/kg of compound (qd, day 1); Tested in 6 mice; format: functional
Mus musculus [18] = experiment: Post inoculation life span in L1210 leukemic mice treated with 480 mg/kg of compound (qd, day 1-7); Tested in 6 mice; format: functional
Mus musculus [19] = experiment: Post inoculation life span in L1210 leukemic mice treated with 800 mg/kg of compound (qd, day 1); Tested in 6 mice; format: functional
Mus musculus [20] = experiment: Post inoculation life span in L1210 leukemic mice treated with 800 mg/kg of compound (qd, day 1-7); Tested in 6 mice; format: functional
Mus musculus [21] = experiment: Compound was evaluated for leukemia related splenomegaly in DBA2 mice spleen weight was determined ~ 24 hour after the last treatment at schedule of administration = qd, day 1,3, 5, 7, 9, 11 at a dose 480 mg/kg; format: functional
Mus musculus [22] = experiment: Compound was evaluated for leukemia related splenomegaly in DBA2 mice spleen weight was determined ~ 24 hour after the last treatment at schedule of administration = qd, day 1,3, 5, 7, 9, 11 at a dose 800 mg/kg; Toxic; format: ADME, organism-based; design: dose 800 mg/kg; details: in vivo
L1210 [23] = experiment: Residual leukemic cell populations after last treatment in L1210 leukemic mice treated with 480 mg/kg of compound (bid, day 1,3,5,7); format: functional, Mus musculus
L1210 [24] = experiment: Residual leukemic cell populations after last treatment in L1210 leukemic mice treated with 480 mg/kg of compound (bid, day 1-7); Toxic; format: toxicity, organism-based; design: dose 480 mg/kg; details: mouse, in vivo
L1210 [25] = experiment: (§2) Residual leukemic cell populations after last treatment in L1210 leukemic mice treated with 480 mg/kg of compound (qd, day 1); format: functional, Mus musculus
L1210 [26] = experiment: Residual leukemic cell populations after last treatment in L1210 leukemic mice treated with 480 mg/kg of compound (qd, day 1,3,5,7); format: functional, Mus musculus
L1210 [27] = experiment: Residual leukemic cell populations after last treatment in L1210 leukemic mice treated with 480 mg/kg of compound (qd, day 1,4,7); format: functional, Mus musculus
L1210 [28] = experiment: Residual leukemic cell populations after last treatment in L1210 leukemic mice treated with 480 mg/kg of compound (qid, day 1); Toxic; format: toxicity, organism-based; design: dose 480 mg/kg; details: mouse, in vivo
L1210 [29] = experiment: Residual leukemic cell populations after last treatment in L1210 leukemic mice treated with 480 mg/kg of compound (tid, day 1); format: functional, Mus musculus
L1210 [30] = experiment: Residual leukemic cell populations after last treatment in L1210 leukemic mice treated with 480 mg/kg of compound (tid, day 1-7); Toxic; format: functional, organism-based; design: dose 480 mg/kg; details: Mus musculus
L1210 [31] = experiment: Residual leukemic cell populations after last treatment in L1210 leukemic mice treated with 480 mg/kg of compound (bid, day 1); format: functional, Mus musculus
L1210 [32] = experiment: as §2; format: functional, Mus musculus; remark: listed apart in the source
L1210 [33] = experiment: Residual leukemic cell populations after last treatment in L1210 leukemic mice treated with 480 mg/kg of compound (tid, day 1,3,5,7); Toxic; format: toxicity, organism-based; design: dose 480 mg/kg; details: mouse, in vivo
Mus musculus [34] = experiment: Post inoculation life span in L1210 leukemic mice treated with 480 mg/kg of compound (bid, day 1); format: functional
Mus musculus [35] = experiment: Post inoculation life span in L1210 leukemic mice treated with 480 mg/kg of compound (bid, day 1,3,5,7); format: functional
Mus musculus [36] = experiment: Post inoculation life span in L1210 leukemic mice treated with 480 mg/kg of compound (bid, day 1-7); format: functional
Mus musculus [37] = experiment: (§3) Post inoculation life span in L1210 leukemic mice treated with 480 mg/kg of compound (qd, day 1); format: functional
Mus musculus [38] = experiment: Post inoculation life span in L1210 leukemic mice treated with 480 mg/kg of compound (qd, day 1,4,7); format: functional
Mus musculus [39] = experiment: (§4) Post inoculation life span in L1210 leukemic mice treated with 480 mg/kg of compound (qd, day 1-7); format: functional
Mus musculus [40] = experiment: Post inoculation life span in L1210 leukemic mice treated with 480 mg/kg of compound (tid, day 1); format: functional
Mus musculus [41] = experiment: Post inoculation life span in L1210 leukemic mice treated with 480 mg/kg of compound (tid, day 1,3,5,7); format: functional
Mus musculus [42] = experiment: Post inoculation life span in L1210 leukemic mice treated with 480 mg/kg of compound (tid, day 1-7); format: functional
Mus musculus [43] = experiment: as §3; format: functional; remark: listed apart in the source
Mus musculus [44] = experiment: Post inoculation life span in L1210 leukemic mice treated with 480 mg/kg of compound (qd, day 1,3,5,7); format: functional
Mus musculus [45] = experiment: as §4; format: functional; remark: listed apart in the source
Mus musculus [46] = experiment: Post inoculation life span in L1210 leukemic mice treated with 480 mg/kg of compound (qid, day 1); format: functional
Mus musculus [47] = experiment: Compound was evaluated for leukemia related splenomegaly in DBA2 mice spleen weight was determined ~ 24 hour after the last treatment at schedule of administration at qd, day 1,3, 5, 7, 9, 11 at a dose 288 mg/kg; format: functional
Mus musculus [48] = experiment: Compound was evaluated for leukemia related splenomegaly in DBA2 mice spleen weight was determined ~ 24 hour after the last treatment at schedule of administration = qd, day 1,3, 5, 7, 9, 11 at a dose 400 mg/kg; format: functional
Mus musculus [49] = experiment: Compound was evaluated for leukemia related splenomegaly in DBA2 mice spleen weight was determined ~ 24 hour after the last treatment at schedule of administration at bid, day 1,3, 5, 7, 9, 11 at a dose 288 mg/kg; format: functional
Mus musculus [50] = experiment: Compound was evaluated for leukemia related splenomegaly in DBA2 mice spleen weight was determined ~ 24 hour after the last treatment at schedule of administration at bid, day 1,3, 5, 7, 9, 11 at a dose 400 mg/kg; Toxic; format: ADME, organism-based; design: dose 400 mg/kg; details: in vivo

With `CCOC(=N)c1ncn(C2O[C@H](CO)[C@@H](O)[C@H]2O)n1` (stereo not given in full) the Control (L1210 [1]) was 1.3%, the Control (L1210 [2]) was “Toxic” and the Control (L1210 [3]) was 1.7%. The Control (L1210 [4]) was 27%, the Control (L1210 [5]) was “Toxic” and the Control (L1210 [6]) was 1.1%. The Control (L1210 [7]) was “Toxic”, the Control (L1210 [8]) was 0.4% and the Control (L1210 [9]) was 1.7%. The Control (L1210 [10]) was “Toxic”, the Spleen weight (Mus musculus [11]) was “Toxic” and the T/C (Mus musculus [12]) was 149%. The T/C (Mus musculus [13]) was 92%, the T/C (Mus musculus [14]) was 144% and the T/C (Mus musculus [15]) was 114%. For the same compound, the T/C (Mus musculus [16]) was 48%, the T/C (Mus musculus [17]) was 149% and the T/C (Mus musculus [18]) was 134%. For the same compound, the T/C (Mus musculus [19]) was 159% and 144%, the T/C (Mus musculus [20]) was 70% and the Spleen weight (Mus musculus [21]) was 1257 mg. The Spleen weight (Mus musculus [22]) was “Toxic”.

With `COC(=N)c1ncn([C@@H]2O[C@H](CO)[C@@H](O)[C@H]2O)n1` the Control (L1210 [23]) was 12%, the Control (L1210 [24]) was “Toxic” and the Control (L1210 [25]) was 30% and 21%. The Control (L1210 [26]) was 46%, the Control (L1210 [27]) was 73% and the Control (L1210 [28]) was “Toxic”. The Control (L1210 [29]) was 0.6%, the Control (L1210 [30]) was “Toxic” and the Control (L1210 [31]) was 9%. The Control (L1210 [32]) was 32%, the Control (L1210 [33]) was “Toxic” and the T/C (Mus musculus [34]) was 125%. The T/C (Mus musculus [35]) was 162%, the T/C (Mus musculus [36]) was 101% and the T/C (Mus musculus [37]) was 113% and 116%. For the same compound, the T/C (Mus musculus [38]) was 119%, the T/C (Mus musculus [39]) was 162% and 97% and the T/C (Mus musculus [40]) was 153%. The T/C (Mus musculus [41]) was 76%, the T/C (Mus musculus [42]) was 61% and the T/C (Mus musculus [43]) was 114%. The T/C (Mus musculus [44]) was 121%, the T/C (Mus musculus [45]) was 142% and the T/C (Mus musculus [46]) was 60%. It also gave a Spleen weight (Mus musculus [47]) of 599 mg, a Spleen weight (Mus musculus [48]) of 216 mg and a Spleen weight (Mus musculus [49]) of 150 mg. The Spleen weight (Mus musculus [50]) was “Toxic”.

Source: ChEMBL document CHEMBL1124513, “Synthesis and antitumor activity of ribavirin imidates. A new facile synthesis of ribavirin amidine (1-beta-D-ribofuranosyl-1,2,4-triazole-3-carboxamidine hydrochloride)” (J Med Chem, 1989)
